Measurements: patent publication US8202893B2, “Cannabinergic lipid ligands” (University of Connecticut, priority 2004, dated 2012)
Where two headings read alike, the source gives them in different places.

Assays:
CB2 receptor = biological target: T1, CB2 receptor (Mus musculus, UniProt P47936); experiment: CB2 receptor binding, [3H]CP-55,940 displacement; details: mouse spleen membranes
T1 construct: membranes were prepared from frozen mouse spleen; from tissue; host or cells: mouse spleen
Description: (§1) The treated membranes were subsequently used in the binding assay described below. Approximately 30 μg of membranes were incubated in silanized 96-well microtiter plate with TME containing 0.1% essentially fatty acid-free bovine serum albumin (BSA), 0.8 nM [^3H] CP-55,940, and various concentrations of test materials in a final volume of 200 μL. The assays were incubated for 1 hour at 30° C. and then immediately filtered using Packard Filtermate 196 harvester and Whatman GF/C filterplates and washed with wash buffer (TME) containing 0.5% BSA. Radioactivity was detected using MicroScint 20 scintillation cocktail added directly to the dried filterplates, and the filterplates were counted using a Packard Instruments Top-Count. Nonspecific binding was assessed using 100 nM CP-55,940. Data collected from three independent experiments performed with duplicate determinations was normalized between 100% and 0% specific binding for [^3H] CP-55,940, determined using buffer and 100 nM CP-55,940. The normalized data was analyzed using a 4-parameter nonlinear logistic equation to yield IC50 values.
For the CB2 receptor binding studies, membranes were prepared from frozen mouse spleen essentially according to the procedure of P. R. Dodd et al, A Rapid Method for Preparing Synaptosomes: Comparison with Alternative Procedures, Brain Res., 226, 107-118 (1981) which is incorporated by reference herein. Silanized centrifuge tubes were used throughout to minimize receptor loss due to adsorption. The CB2 binding assay was conducted in the same manner as for the CB1 binding assay. The binding affinities (Ki) were also expressed in nanomoles (nM).

CB1 cannabinoid receptor = biological target: T2, CB1 cannabinoid receptor (Rattus norvegicus, UniProt P20272); experiment: CB1 receptor binding, [3H]CP-55,940 displacement; details: rat forebrain membranes
T2 construct: membranes were prepared from rat forebrain membranes; from tissue; host or cells: rat forebrain
T2 sequence (P20272 whole entry): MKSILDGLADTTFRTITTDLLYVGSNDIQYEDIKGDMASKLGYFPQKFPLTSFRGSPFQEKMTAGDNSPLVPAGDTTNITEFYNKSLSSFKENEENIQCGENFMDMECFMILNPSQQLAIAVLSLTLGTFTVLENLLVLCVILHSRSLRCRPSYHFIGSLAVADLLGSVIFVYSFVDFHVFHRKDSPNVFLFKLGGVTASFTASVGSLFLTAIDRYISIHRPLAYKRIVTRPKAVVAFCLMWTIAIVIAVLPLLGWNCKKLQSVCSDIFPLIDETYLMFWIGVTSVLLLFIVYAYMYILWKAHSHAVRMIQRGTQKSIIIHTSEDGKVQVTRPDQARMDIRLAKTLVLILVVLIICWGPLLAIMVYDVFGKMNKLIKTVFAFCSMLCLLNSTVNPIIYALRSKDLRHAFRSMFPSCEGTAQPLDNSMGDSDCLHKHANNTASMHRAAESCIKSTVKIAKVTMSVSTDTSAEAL
Description: Some inventive analogs were tested for CB2 receptor binding affinity and for CB1 receptor affinity (to determine selectivity). […] The lower the Ki value, the higher the binding affinity. […] For the CB1 receptor binding studies, membranes were prepared from rat forebrain membranes according to the procedure of P. R. Dodd et al, A Rapid Method for Preparing Synaptosomes: Comparison with Alternative Procedures, Brain Res., 107-118 (1981). The binding of the novel analogues to the CB1 cannabinoid receptor was assessed as described in W. A. Devane et al, Determination and Characterization of a Cannabinoid Receptor in a Rat Brain, Mol. Pharmacol., 34, 605-613 (1988) and A. Charalambous et al, 5′-azido Δ^8-THC: A Novel Photoaffinity Label for the Cannabinoid Receptor, J. Med. Chem., 35, 3076-3079 (1992) with the following changes. The above articles are incorporated by reference herein.
Membranes, previously frozen at −80° C., were thawed on ice. To the stirred suspension was added three volumes of TME (25 mM Tris-HCl buffer, 5 mM MgCl2 and 1 mM EDTA) at a pH 7.4. The suspension was incubated at 4° C. for 30 min. At the end of the incubation, the membranes were pelleted and washed three times with TME.
as §1

anandamide transporter = experiment: [3H]Anandamide transporter competition assay; format: cell-based; details: human CCF-STG1 astrocytoma cells, 10 nM [3H]anandamide; read-out: IC50 (AT inhib.)
Description: Human CCF-STG1 astrocytoma cells (American Type Culture collection) were grown in RPMI1640 culture medium containing 2 mM L-glutamine, 4.5 g/L glucose, 10 mM HEPES, and 1.0 mM sodium pyruvate, 10% FBS, cultures at 37° C. with 5% CO2. For standard competition assays, confluent cells grown in 24-well plates were rinsed and preincubated for 10 min at 37° C. in assay buffer (Hank's Balanced Salt Solution containing 0.1% DMSO, 10 mM HEPES) plus test compounds (at their final concentrations of 0.01-100 μM). After having discarded the preincubation media, the cells were incubated for 4 min in 0.2 ml assay buffer containing 10 nM [^3H] anandamide (137.6 Ci/mmol, New England Nuclear) plus test compounds. Reactions were stopped by removing the incubation media and rinsing the cells three times with 0.5 ml of ice-cold HBSS buffer containing 0.1% fatty acid-free Bovine Serum Albumin (sigma). Radioactive material in Triton X-100 cell extracts was measured by liquid scintillation counting. A minimum of three independent experiments conducted in six replicates was used to define the concentration needed to produce half-maximal inhibition (IC50) for each compound. IC50 values were obtained by nonlinear regression fitting of the data, using the PRIZM software package. Data are expressed as mean±SEM.

[1] = biological target: T3, FAAH (fatty acid amide hydrolase) (Rattus norvegicus, UniProt P97612); experiment: FAAH screening: inhibition of anandamide metabolism to arachidonic acid; format: biochemical; details: 25 nmoles compound with 25 nmoles AEA, 75 μg enzyme, 250 μL, 15 min
T3 construct: Anandamide Amidase Activity in Rat Brain Microsomes; from tissue; host or cells: rat brain microsomes (by the cited procedure)
T3 sequence (P97612 1-579): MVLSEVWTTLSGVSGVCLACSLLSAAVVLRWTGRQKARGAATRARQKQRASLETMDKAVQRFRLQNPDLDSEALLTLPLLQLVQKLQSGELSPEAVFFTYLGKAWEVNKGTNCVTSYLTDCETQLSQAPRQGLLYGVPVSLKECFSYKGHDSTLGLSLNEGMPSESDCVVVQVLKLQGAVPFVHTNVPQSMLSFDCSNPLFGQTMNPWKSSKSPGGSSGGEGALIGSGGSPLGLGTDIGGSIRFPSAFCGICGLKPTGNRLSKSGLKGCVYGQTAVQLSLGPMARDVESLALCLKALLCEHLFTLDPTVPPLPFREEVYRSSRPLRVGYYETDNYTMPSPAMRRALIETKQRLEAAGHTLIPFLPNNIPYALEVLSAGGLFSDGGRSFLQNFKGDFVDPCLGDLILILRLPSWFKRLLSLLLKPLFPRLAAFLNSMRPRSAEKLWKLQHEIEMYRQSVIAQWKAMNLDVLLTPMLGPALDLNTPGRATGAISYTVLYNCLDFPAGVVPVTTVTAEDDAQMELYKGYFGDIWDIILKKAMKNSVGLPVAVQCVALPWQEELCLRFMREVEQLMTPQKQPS
Description: The FAAH (fatty acid amide hydrolase) enzyme preparation was obtained according to the procedure of Lang and Makriyannis et al High Performance Liquid Chromatographic Determination of Anandamide Amidase Activity in Rat Brain Microsomes, Analytical Biochemistry (238): 40-45, 1996.
All compound solutions were made to a concentration of 10 mM in DMSO. Three tests were performed on each compound: hydrolysis, to determine the stability of the compound in assay conditions without the enzyme present; metabolism, to determine the stability of the compound with the enzyme present; and inhibition of anandamide (native substrate) metabolism to arachidonic acid.
Again the reaction mixture was treated in the same manner as described above and the concentrations of AEA and AA were calculated using external standards. Percent inhibition was calculated using the following equation: % Inhib.=(AA15-AA0)i/(AA15-AA0)s where (AA15-AA0)c is the amount of arachidonic acid formed over 15 minutes from AEA with the inhibitor present and (AA15-AA0)s is the amount of arachidonic acid formed over 15 minutes from AEA when the inhibitor is not present. […] The reaction mixtures were treated as described above and the amount of AA formed was calculated. The software package GraphPad Prism was utilized to calculate IC50 and Ki. HPLC Conditions:
Chromatographic separation was achieved using an Ultrasphere ODS Pre-column (4.6×45 mm) from Beckman. Hardware consisted of a Waters Millennium HPLC system with a 20 μL injection loop. The mobile phase consisted of 8.5% o-phosphoric acid:acetonitrile (3:7), run isocratically at a rate of 1 mL/min and detection at 204 nm. The total run time was 8 minutes with AEA eluting at 2.2 minutes and AA at 6.0 minutes.

[2] = with PMSF (second value of cell), read-out: Ki CB1 (nM) (o/w PMSFQ)
[3] = without PMSF (first value of cell), read-out: Ki CB1 (nM) (o/w PMSFQ)
[4] = with PMSF (second value of cell), read-out: Ki CB1 (nM) (o/w PMSF)
[5] = without PMSF (first value of cell), read-out: Ki CB1 (nM) (o/w PMSF)

T1 sequence (P47936 whole entry): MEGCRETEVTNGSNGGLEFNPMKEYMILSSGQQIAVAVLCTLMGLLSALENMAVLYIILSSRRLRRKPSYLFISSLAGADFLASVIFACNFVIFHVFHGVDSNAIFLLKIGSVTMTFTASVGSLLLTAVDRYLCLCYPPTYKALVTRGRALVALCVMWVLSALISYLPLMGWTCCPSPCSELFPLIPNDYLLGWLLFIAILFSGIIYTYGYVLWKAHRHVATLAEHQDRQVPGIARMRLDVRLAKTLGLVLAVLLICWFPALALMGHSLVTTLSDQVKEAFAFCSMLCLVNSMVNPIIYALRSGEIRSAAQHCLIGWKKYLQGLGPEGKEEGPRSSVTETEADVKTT

| SMILES | Ki (CB2 receptor) [nM] | Ki (CB1 cannabinoid receptor; [2]) [nM] | Ki (CB1 cannabinoid receptor; [3]) [nM] | IC50 (anandamide transporter) [µM] | Ki (CB1 cannabinoid receptor; [4]) [nM] | Ki (CB1 cannabinoid receptor; [5]) [nM] | FAAH % Inhibition [1] [%] |
| --- | --- | --- | --- | --- | --- | --- | --- |
| CCCCCN(C)C/C=C\C/C=C\C/C=C\C/C=C\CCCCNC(=O)COC [Compound A22] | 224 | – | – | – | – | – | – |
| CCCCCN(C)C/C=C\C/C=C\C/C=C\C/C=C\CCCCNC(C)=O [Compound A23] | 1760 | 627 | 813 | – | – | – | – |
| CCCCCN(C)C/C=C\C/C=C\C/C=C\C/C=C\CCCCNC(=O)COC [Compound A24] | 435 | – | – | – | – | – | – |
| CCCCCN(C)C/C=C\C/C=C\C/C=C\C/C=C\CCCCNC(C)=O [Compound A25] | 3650 | 1030 | 1500 | – | – | – | – |
| C[C@H](CO)NC(=O)CCC/C=C\C/C=C\C/C=C\C/C=C\C12CC3CC(CC(C3)C1)C2 [Compound A28] | 3460 | – | – | – | – | – | – |
| C[C@H](CO)NC(=O)CCC/C=C\C/C=C\C/C=C\C/C=C\CCC12CC3CC(CC(C3)C1)C2 [Compound A29] | 5670 | – | – | – | – | – | – |
| CCCCC/C=C\C/C=C\C/C=C\C/C=C\CCCCOC(=O)N[C@H](C)CO [Compound B1] | 5070 | – | – | 7.1 | 1440 | 1330 | 14.7 |
| CCCCC/C=C\C/C=C\C/C=C\C/C=C\CCCCOC(=O)N[C@@H](C)CO [Compound B2] | 2150 | – | – | 6.4 | 996 | 1100 | 14.3 |
| CCCCC/C=C\C/C=C\C/C=C\C/C=C\CCCCOC(=O)NC1CC1 [Compound B6] | 983 | – | – | 15.5 | 75.1 | 181 | – |
| CCCCC/C=C\C/C=C\C/C=C\C/C=C\CCCCOC(=O)NC1CCC1 [Compound B7] | 5310 | – | – | 15.5 | 995 | 1410 | – |
| CCCCC/C=C\C/C=C\C/C=C\C/C=C\CCCCOC(=O)NC1CCCCC1 [Compound B8] | 781 | – | – | 33 | 1470 | 3960 | – |
| CCCCC/C=C\C/C=C\C/C=C\C/C=C\CCCCNC(=O)OC[C@H](C)O [Compound B16] | 289 | – | – | 3.29 | 686 | 1200 | – |
